Where two headings read alike, the source gives them in different places.
Assays:
[1] = system: Key Broadleaf Weed and Crop Species; experiment: Post-emergent Test II herbicidal activity (Table 15); assay type: in vivo; conditions: post-emergence, 336 h, 14 d; for pest or weed control at 35 g/ha: 35 g ai/ha; for pest or weed control at 70 g/ha: 70 g ai/ha; for pest or weed control at 140 g/ha: 140 g ai/ha
Outline: (§1)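 Plants grown in greenhouse (~15 h photoperiod, 23-29 °C day, 22-28 °C night) to first or second true leaf stage, then sprayed post-emergence at 187 L/ha with a high rate and 1/2×, 1/4×, 1/8× and 1/16× dilutions. Injury scored visually after 14 d, 0-100% versus untreated plants.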

[2] = system: Key Grass and Sedge Weeds as well as Grass Crops; experiment: Post-emergent Test II herbicidal activity (Table 16); assay type: in vivo; conditions: post-emergence, 336 h, 14 d; for pest or weed control at 35 g/ha: 35 g ai/ha; for pest or weed control at 70 g/ha: 70 g ai/ha; for pest or weed control at 140 g/ha: 140 g ai/ha
Outline: as §1

[3] = Abutilon theophrasti, velvetleaf (Abutilon theophrasti), read-out: Visual Growth Reduction (%) 14 Days After Application, ABUTH
[4] = Amaranthus retroflexus, redroot pigweed (Amaranthus retroflexus), read-out: Visual Growth Reduction (%) 14 Days After Application, AMARE
[5] = Brassica napus, oilseed rape, canola (Brassica napus), read-out: Visual Growth Reduction (%) 14 Days After Application, BRSNN
[6] = Chenopodium album, lambsquarters (Chenopodium album), read-out: Visual Growth Reduction (%) 14 Days After Application, CHEAL
[7] = Euphorbia heterophylla, wild poinsettia (Euphorbia heterophylla), read-out: Visual Growth Reduction (%) 14 Days After Application, EPHHL
[8] = Helianthus annuus, sunflower (Helianthus annuus), read-out: Visual Growth Reduction (%) 14 Days After Application, HELAN
[9] = Cyperus esculentus, yellow nutsedge (Cyperus esculentus), read-out: Visual Growth Reduction (%) 14 Days After Application, CYPES
[10] = Echinochloa crus-galli, barnyardgrass (Echinochloa crus-galli), read-out: Visual Growth Reduction (%) 14 Days After Application, ECHCG
[11] = Oryza sativa, rice (Oryza sativa), read-out: Visual Growth Reduction (%) 14 Days After Application, ORYSA
[12] = Setaria faberi, giant foxtail (Setaria faberi), read-out: Visual Growth Reduction (%) 14 Days After Application, SETFA
[13] = Triticum aestivum, wheat, spring (Triticum aestivum), read-out: Visual Growth Reduction (%) 14 Days After Application, TRZAS
[14] = Zea mays, maize, corn (Zea mays), read-out: Visual Growth Reduction (%) 14 Days After Application, ZEAMX

Compound	pest or weed control at 35 g/ha [1, 3] [%]	pest or weed control at 70 g/ha [1, 3] [%]	pest or weed control at 140 g/ha [1, 3] [%]	pest or weed control at 35 g/ha [1, 4] [%]	pest or weed control at 70 g/ha [1, 4] [%]	pest or weed control at 140 g/ha [1, 4] [%]	pest or weed control at 35 g/ha [1, 5] [%]	pest or weed control at 70 g/ha [1, 5] [%]	pest or weed control at 140 g/ha [1, 5] [%]	pest or weed control at 35 g/ha [1, 6] [%]	pest or weed control at 70 g/ha [1, 6] [%]	pest or weed control at 140 g/ha [1, 6] [%]	pest or weed control at 35 g/ha [1, 7] [%]	pest or weed control at 70 g/ha [1, 7] [%]	pest or weed control at 140 g/ha [1, 7] [%]	pest or weed control at 35 g/ha [1, 8] [%]	pest or weed control at 70 g/ha [1, 8] [%]	pest or weed control at 140 g/ha [1, 8] [%]	pest or weed control at 35 g/ha [2, 9] [%]	pest or weed control at 70 g/ha [2, 9] [%]	also measured
COC(=O)c1nc(-c2ccc3cc[nH]c3c2)c(Cl)c(N)c1Cl [Compound 1.05]	45 to 59	95 to 100	85 to 94	60 to 74	75 to 84	95 to 100	30 to 44	45 to 59	60 to 74	85 to 94	95 to 100	95 to 100	30 to 44	30 to 44	45 to 59	95 to 100	95 to 100	95 to 100	0 to 29	0 to 29	pest or weed control at 140 g/ha [2, 9]: 0 to 29%; pest or weed control at 35 g/ha [2, 10]: 0 to 29%; pest or weed control at 70 g/ha [2, 10]: 0 to 29%; pest or weed control at 140 g/ha [2, 10]: 60 to 74%; pest or weed control at 35 g/ha [2, 11]: 0 to 29%; pest or weed control at 70 g/ha [2, 11]: 0 to 29%; pest or weed control at 140 g/ha [2, 11]: 0 to 29%; pest or weed control at 35 g/ha [2, 12]: 30 to 44%; pest or weed control at 70 g/ha [2, 12]: 45 to 59%; pest or weed control at 140 g/ha [2, 12]: 60 to 74%; pest or weed control at 35 g/ha [2, 13]: 0 to 29%; pest or weed control at 70 g/ha [2, 13]: 30 to 44%; pest or weed control at 140 g/ha [2, 13]: 45 to 59%; pest or weed control at 35 g/ha [2, 14]: 0 to 29%; pest or weed control at 70 g/ha [2, 14]: 30 to 44%; pest or weed control at 140 g/ha [2, 14]: 45 to 59%; melting point: 174 to 179 °C
COC(=O)c1nc(-c2ccc3sccc3c2)c(F)c(N)c1Cl [Compound 3.03]	95 to 100	95 to 100	95 to 100	95 to 100	95 to 100	95 to 100	0 to 29	60 to 74	60 to 74	95 to 100	95 to 100	95 to 100	95 to 100	95 to 100	95 to 100	95 to 100	95 to 100	95 to 100	45 to 59	45 to 59	pest or weed control at 140 g/ha [2, 9]: 45 to 59%; pest or weed control at 35 g/ha [2, 10]: 85 to 94%; pest or weed control at 70 g/ha [2, 10]: 95 to 100%; pest or weed control at 140 g/ha [2, 10]: 95 to 100%; pest or weed control at 35 g/ha [2, 11]: 0 to 29%; pest or weed control at 70 g/ha [2, 11]: 0 to 29%; pest or weed control at 140 g/ha [2, 11]: 0 to 29%; pest or weed control at 35 g/ha [2, 12]: 0 to 29%; pest or weed control at 70 g/ha [2, 12]: 85 to 94%; pest or weed control at 140 g/ha [2, 12]: 85 to 94%; pest or weed control at 35 g/ha [2, 13]: 0 to 29%; pest or weed control at 70 g/ha [2, 13]: 30 to 44%; pest or weed control at 140 g/ha [2, 13]: 45 to 59%; pest or weed control at 35 g/ha [2, 14]: 95 to 100%; pest or weed control at 70 g/ha [2, 14]: 95 to 100%; pest or weed control at 140 g/ha [2, 14]: 95 to 100%; melting point: 84 to 85 °C
COC(=O)c1nc(-c2ccc3ccoc3c2F)nc(N)c1OC [Compound 2.13]	95 to 100	95 to 100	95 to 100	60 to 74	95 to 100	95 to 100	95 to 100	95 to 100	95 to 100	95 to 100	95 to 100	95 to 100	95 to 100	95 to 100	95 to 100	75 to 84	85 to 94	95 to 100	30 to 44	85 to 94	pest or weed control at 140 g/ha [2, 9]: 85 to 94%; pest or weed control at 35 g/ha [2, 10]: 75 to 84%; pest or weed control at 70 g/ha [2, 10]: 95 to 100%; pest or weed control at 140 g/ha [2, 10]: 95 to 100%; pest or weed control at 35 g/ha [2, 11]: 0 to 29%; pest or weed control at 70 g/ha [2, 11]: 30 to 44%; pest or weed control at 140 g/ha [2, 11]: 30 to 44%; pest or weed control at 35 g/ha [2, 12]: 0 to 29%; pest or weed control at 70 g/ha [2, 12]: 45 to 59%; pest or weed control at 140 g/ha [2, 12]: 60 to 74%; pest or weed control at 35 g/ha [2, 13]: 0 to 29%; pest or weed control at 70 g/ha [2, 13]: 45 to 59%; pest or weed control at 140 g/ha [2, 13]: 45 to 59%; pest or weed control at 35 g/ha [2, 14]: 0 to 29%; pest or weed control at 70 g/ha [2, 14]: 30 to 44%; pest or weed control at 140 g/ha [2, 14]: 45 to 59%; melting point: 178 °C
